Data taken from patent publication US12023348B2, “EGR1 targeting molecules for the treatment of inflammatory and hyperproliferative conditions” (The Medical Research, Infrastructure and Health Services …, priority 2015, dated 2024).
Structures can show the parent of a compound that is named as a salt.

How the values were obtained:
Type in all cases: cell-based, human
SAMD9 promoter [1] = assay: High-throughput luciferase reporter screen in HeLa line stably expressing 585 bp SAMD9 promoter fragment; settings: Homo sapiens, HeLa; fold increase in promoter activity by luciferase assay vs cells treated with vehicle only; test drugs 10 μM, 24 hours; read-out: SAMD9 expression fold change in HeLa reporter assay
Experimental: HeLa cell lines stably expressing the constructs were generated under neomycin selection. Briefly, pGL4.17 containing a SAMD9 promoter fragment spanning 585 bp upstream to the TSS and an empty pGL4.17 vector were transfected into HeLa cells. Forty eight hours after transfection, standard medium was replaced with medium containing 600 μg/ml G418 (Sigma-Aldrich), cells were kept under G418 selection and the selective medium was replaced approximately every 2-3 days. After two passages, colonies of stable cells were isolated, expanded and frozen for further use.
Test drugs were dispensed at a concentration of 10 μM by a robotic system into 96-well plates containing 9000 cells/well expressing the pGL4.17 reporter construct carrying a 585 bp SAMD9 promoter fragment operably linked to luciferase gene or the empty pGL4.17 luciferase construct (Promega cat. no. E6721). Medium was removed after 24 hours and the cells subjected to Steady-Glo luciferase lysis-substrate solution assay (Promega) as described above. Liquid handling was done with the Tecan (Tecan) Freedom 150 (Robotic & MCA liquid Handling System) and the luciferase reading was done with a robot integrated Tecan Infinite® M1000 reader.
This cell line was then used to robotically screen a total of 1496 compounds obtained from the National Cancer Institute Diversity Set III and Oncology Drugs Set III small molecule libraries.

SAMD9 = SAMD9 RNA expression by qRT-PCR in HeLa cells; settings: fold increase in RNA gene expression vs cells treated with vehicle only
Experimental: HeLa cells were cultured in DMEM 4.5 g/l glucose medium containing 10% FCS, 1% L-glutamine and 1% penicillin and streptomycin (Biological Industries) and grown at 37° C. and 5% CO2.
Of note, when cells were incubated with CaCx and ApDx (NCI, MA USA), they were grown in the appropriate medium with 0.1% FCS only.
RNA was extracted from cell cultures using an RNA extraction kit (Roche Diagnostics, Mahheim, Germany). cDNA was synthesized from 500 ng of total RNA using the Verso cDNA kit (Thermo Fisher Scientific, Waltham, MA, USA). cDNA PCR amplification was carried out using the Fast SYBR Green Master Mix in a StepOnePlus™ Real-Time PCR System (Applied Biosystems, Foster City, CA, USA) with gene-specific intron-crossing oligonucleotide pairs listed in Table 1 (below). For quantification, standard curves were obtained using serially diluted cDNA amplified in the same qRT-PCR run. The melting temperature (Tm) of the amplified products was measured to confirm the specificity of the reaction conditions. Cycling conditions were as follows: 95° C. for 10 minutes, 95° C. for 10 seconds, 62° C. for 15 seconds, and 72° C. for 25 seconds for a total of 40 cycles. Each sample was analyzed in triplicate. mRNA expression level for target gene was normalized to GAPDH. The results are based the amount of target, normalized to an endogenous reference (IACTB) and relative to a calibrator, as calculated by 2-ΔΔCT. All samples were run in triplicate. The expression levels of target genes were expressed as mRNA relative units.
The potential ability of these 31 molecules to induce SAMD9 expression in cell cultures was then scrutinized.

SAMD9 promoter [2] = assay: Dual luciferase reporter assay in HeLa cells transiently transfected with SAMD9 promoter construct; settings: transient transfection, IFN-γ 10 ng/ml, 48 hours after transfection (FIG. 1A)
Description: SAMD9 promoter fragments cloned into pGL3 as previously described [Hershkovitz, D. et al. (2011) J Invest Dermatol 131: 662-9], were digested with KpnI and XhoI and subcloned into pGL4.17 [luc2/Neo] (Promega). The expression vector pGL4.17 encodes the luciferase reporter gene luc2 (Photinuspyralis) and contains a mammalian selectable marker for neomycin resistance. For transient transfection, SAMD9 promoter-luciferase constructs were transfected into HeLa cells using lipofectamine 2000 (Invitrogen, Carlsbad, CA) according to the manufacturer's instructions.
Cellular protein was extracted by adding 20 μl of Promega Lysis Buffer (PLB) (Promega) to each sample and incubated for a period of 15 minutes. Cell lysate was analyzed in a 96-well flat white plate (Greiner Bio-One, United Kingdom) where 100 μl of Luciferase Assay Reagent II (LAR II) (Promega) was added to each sample. Luminescence was ascertained using the Infinite M200 multimode microplate reader (Tecan Ltd, Minnedorf, Switzerland). After the initial reading, 100 μl of Stop & GloR Reagent (Promega) were dispensed into tested wells and Renilla luciferase levels were tested. The assay was completed after Luciferase levels were normalized to Renilla levels.
SAMD9 promoter activity was first analyzed using a luciferase reporter assay in HeLa cells. […]

SAMD9 promoter [3] = assay: High-throughput luciferase reporter screen in HeLa line stably expressing 585 bp SAMD9 promoter fragment; settings: IFN-γ 10 ng/ml for 24 hours (FIG. 1B)

| Compound | fold induction at 10 µM (SAMD9 promoter [1]) | SAMD9 expression fold change in HeLa cells (SAMD9) | SAMD9 promoter activity (luciferase) (SAMD9 promoter [2]) | Response of stable SAMD9 promoter-luciferase HeLa cell line (SAMD9 promoter [3]) |
| --- | --- | --- | --- | --- |
| C[C@@H](CSC(=O)c1ccccc1)C(=O)N1c2ccccc2C[C@@H]1C(=O)O [Compound 604535, (2R)-1-[(2R)-2-methyl-3-phenylcarbonylsulfanyl-propanoyl]-2,3-dihydroindole-2-carboxylic acid] | 2.26 | 1.07 fold |  |  |
| CN(C)C(=S)/N=c1\ss/c(=N\C(=S)N(C)C)n1-c1ccc2c(c1)OCO2 [Compound 622589, 3,3′-[4-(1,3-benzodioxol-5-yl)-1,2,4-dithiazolidine-3,5-diylidene]bis[1,1-dimethyl(thiourea)]] | 4.32 | 1.17 fold |  |  |
| Cc1cc(Cl)ccc1N1C(=O)C(=O)C(c2nc3ccccc3o2)C(=O)C1=O [Compound 623051, 4-(1,3-Benzoxazol-2-yl)-1-(4-chloro-2-methylphenyl)-2,3,5,6-piperidinetetrone] | 2.74 | 0.97 fold |  |  |
| CCN(CC)CCNc1ccc2nc(C)n3c4ccc(OC)cc4c(=O)c1c23.Cl [Compound 637993, 5-{[2-(diethylamino)ethyl]amino}-8-methoxy-1-methyl-6h-imidazo[4,5,1-de] acridin-6-one hydrochloride (1:1)] | 3.7 | 6.34 fold |  |  |
| S=C(Nc1nnc(-c2ccccc2)c(-c2ccccc2)n1)N(/N=C/C=C/c1ccccc1)c1ccccc1 [Compound 640637, 3-Phenylacrylaldehyde N′-(5,6-diphenyl-1,2,4-triazin-3-yl)-N-phenylthiosemicarbazone] | 2.32 | 1.16 fold |  |  |
| COc1ccc(/C(=N\O)C(c2ccc(OC)cc2)C2C(=O)Oc3ccccc32)cc1 (stereo not shown) [Compound 641607, 3-(2-(Hydroxyimino)-1,2-bis(4-methoxyphenyl)ethyl)-1-benzofuran-2(3H)-one] | 3.25 | 1.27 fold |  |  |
| O=C(c1nc2ccc(Cl)cc2nc1O)C(O)c1ccc2c(c1)OCO2 (stereo not shown) [Compound 642649, 2-(1,3-Benzodioxol-5-yl)-1-(6-chloro-3-hydroxy-2-quinoxalinyl)-2-hydroxyethanone] | 2.8 | 0.85 fold |  |  |
| CN(C)c1ccc(/C=C2\Cc3ccccc3C2=O)cc1Br [Compound 643163, 2-(3-Bromo-4-dimethylaminobenzylidene)-1-indanone] | 2.64 | 0.79 fold |  |  |
| COc1ccc(/C=C2\Cc3ccccc3C2=O)cc1OC [Compound 643174, 2-(3,4-Dimethoxybenzylidene)-1-indanone] | 2.17 | 1.29 fold |  |  |
| COc1ccc(/C=C2\CCc3ccccc3C2=O)cc1OC [Compound 643175, 2-(3,4-Dimethoxybenzylidene)-1-tetralone] | 2.47 | 0.89 fold |  |  |
| CCN1C(=O)/C(=C\Nc2ccccc2)S/C1=N\Nc1ncc(CC(=O)Nc2ccccc2C)s1 [Compound 658350, 2-(2-(2-(5-(Anilinomethylene)-3-ethyl-4-oxo-1,3-thiazolidin-2-ylidene)hydrazino)-1,3-thiazol-5-yl)-N-(2-methylphenyl) acetamide] | 2.03 | 1.01 fold |  |  |
| NC(Cc1ccc2oc3cc(=O)c4ccccc4c-3nc2c1)C(=O)O [Compound 672425, 1,2-Benzo-8-(L-alanyl)-3-phenoxazone nitrate salt] | 2.11 | 0.98 fold |  |  |
| N#CC(NCc1cccc(CNC(C#N)c2ccccc2)c1)c1ccccc1 (stereo not shown) [Compound 681730, 2,2′-(1,3-phenylenebis (methylene))bis(azanediyl)bis(2-phenylacetonitrile)] | 2.48 | 1.6 fold |  |  |
| IFN-γ: interferon-gamma, previously identified as a strong inducer of SAMD9 expression |  |  | significantly induced | respond robustly |
